Data reported in patent US20200078471A1, “RENAL CLEARABLE DRUG DELIVERING NANOPARTICLES AND METHODS OF USE THEREFOR” (priority 2018, published 2020).
Entries after “also recorded” stand apart in the source; their conditions may differ.

Columns and labels:
[1] = system: MCF-7 human breast cancer xenograft; experiment: Tumor targeting efficiency; assay type: in vivo, nude mice; conditions: 12 hr p.i., DOX 5 mg/kg i.v.
Protocol: Tumor targeting, penetration and antitumor efficacy studies. […] The tumors were collected and homogenized and DOX concentrations were measured using the same approaches described in the biodistribution studies. The ex vivo tumor fluorescence imaging was acquired using a Carestream Molecular imaging system In-Vivo FX PRO with an excitation filter of 470±10 nm and an emission filter of 600±20 nm. […] The mice were sacrificed 12 hr and 3 days p.i. respectively. Tumor tissues were fixed, embedded in paraffin and sliced before haematoxylin and eosin (H&E), and silver staining. To enable visualization of AuNPs in the tumor issues, dewaxed tumor slides were incubated with silver nitrate (0.1 M) and hydroquinone (2 mM) for 15 min at room temperature, followed by washing with pure water and haemotoxylin and eosin staining (Du et al., 2017). […] The length (L) and width (W) of the tumors were measured with a digital calliper and the volume (V) was calculated by the equation V=½ LW^2. The body weights were also monitored during the treatment. […] For survival study, the tumor bearing mice were treated same with therapeutic study, and tumor sizes were monitored. […] To establish the metastatic lung cancer model, female Balb/c mice were implanted with 4T1 mammary cancer cells subcutaneously and the cancer cells would be readily developed as lung metastatic nodules after a week.

4T1 lung metastasis = experiment: Metastatic lung cancer model, nodule count and size; assay type: in vivo, female Balb/c mice; conditions: 5 mg/kg DOX equivalent ×5, day 23
[2] = Renal clearance (urine DOX by HPLC, gold by ICP-MS); assay type: in vivo, female CD-1 mice; conditions: 24 hr p.i., intravenous
Excerpt: (§1) Clearance, physiological stability, and elimination. […] The DOX concentrations were quantified based on fluorescence analysis.

[3] = Pharmacokinetic study, DOX in blood
Protocol: Clearance, physiological stability, and elimination. […] Since DOX is highly fluorescent, the fluorescence signals were collected at 610 nm with excitation at 470 nm. […] Extraction was performed at −20° C. for overnight and supernatant was obtained after centrifugation at 15,000 g for 10 min. The DOX concentrations were quantified based on fluorescence analysis. […] For pharmacokinetic study, the DOX concentrations in blood were analysed using HPLC with the same approach described above.

[4] = Maximal tolerated dose, single dose; conditions: single i.v. dose, 10 days
Protocol: (§2) Toxicity studies. […] For blood chemistry study, the blood was collected through cardiac puncture 15 days p.i. and kept on ice for 30 min for coagulation. […] The organs and tissues were also collected, fixed in formalin (10%) and embedded in paraffin before H&E staining and pathological evaluation. […] The mice were sacrificed on 10 days p.i. and the blood were extracted via cardiac puncture.

[5] = DOX and AuNP biodistribution in organs and tissues; assay type: in vivo, CD-1 mice
Excerpt: as §1

[6] = Acute toxicity, successive treatment (body weight, blood chemistry, H&E)
Protocol: as §2

[7] = equivalent DOX 5 mg/kg ×5, within 10 days

COc1cccc2c1C(=O)c1c(O)c3c(c(O)c1C2=O)C[C@@](O)(C(=O)CO)C[C@@H]3O[C@H]1C[C@H](N)[C@H](O)[C@H](C)O1 [free DOX, doxorubicin]
tumor targeting of DOX [1]: 0.79±0.22 % ID/g
count of metastatic tumor nodules in the lungs (per mouse) (4T1 lung metastasis): 62.6±30.5
size of metastatic lung tumor nodules (4T1 lung metastasis): 1.64±0.77 mm
DOX-based renal clearance (renally cleared DOX) [2]: 6.1±1.1 % ID
24-h area under curve (AUC) ([3]; DOX in blood): 2.2 % ID·h/g
distribution half-life t1/2a ([3]; plasma, CD-1 mice): 4.8 min
maximal tolerance dose (MTD, in terms of DOX) [4]: 10 mg/kg body weight
DOX distribution in the kidneys ([5]; 1 hr p.i.): 11.4 % ID/g
DOX accumulation in the liver ([5]; 24 h p.i.): even lower accumulation in the liver
decrease of muscle DOX from 1 to 24 h ([5]; mouse, in vivo): 19.7%
hepatocyte anisocaryosis and anisocytosis (H&E liver) ([6]; 15 days p.i.): increase in hepatocyte anisocaryosis and anisocytosis; also recorded: evident
hepatocyte nuclei size distribution width ([6]; 15 days p.i.): significant higher distribution width
pathological signs in heart, kidney, spleen and muscle ([6]; 15 days p.i.): no observable pathological signs
blood chemistry, liver function (ALT, AST, ALKP, albumin) ([6]; 15 days p.i., 5 mg/kg ×5): increased alanine aminotransferase (ALT) and aspartate aminotransferase (AST) levels and decreased alkaline phosphatase (ALKP) and albumin levels in serum
blood chemistry, renal function (BUN, CREA) ([6]; 15 days p.i., 5 mg/kg ×5): increased blood urea nitrogen (BUN) and creatinine (CREA) levels in serum
body weight loss [6, 7]: ~10%
mortality [6, 7]: 25%
